Test results as given in PubChem BioAssay AID2060896 (Molecular Pharmacology Branch, DTP, NCI, 2025).
Values joined by “and” are separate entries in the source; they are usually repeats but may differ in a detail not shown here. Equal values may be shown once. Values belong to the compound of their own block, whether it stands above or below them.

System: 941728-121-R-J1-PDC complex spheroid viability
Assay: Anticancer human tumor 941728-121-R-J1-PDC patient-derived lung adenocarcinoma cell line growth inhibition [RAS]
Conditions: for viability, T/C: stronger effect = lower value
Method in brief: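 Multi-cell-type spheroids: tumor cells plus HUVEC endothelial cells and mesenchymal stem cells. RAS-pathway inhibitors were combined with targeted agents, each dosed in half-log steps down from clinical Cmax, or from 10 microM when Cmax was unknown.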

[1] = curve of first compound, second compound 0.000949 µM
[2] = curve of first compound, second compound 0.003 µM
[3] = curve of first compound, second compound 0.00949 µM
[4] = curve of first compound, second compound 0.03 µM
[5] = curve of first compound, second compound 0.0949 µM
[6] = curve of first compound, second compound 0.3 µM
[7] = second compound 0.000949 µM, first compound 0.0316 µM
[8] = second compound 0.000949 µM, first compound 0.1 µM
[9] = second compound 0.000949 µM, first compound 0.316 µM
[10] = second compound 0.000949 µM, first compound 1 µM
[11] = second compound 0.000949 µM, first compound 3.16 µM
[12] = second compound 0.000949 µM, first compound 10 µM
[13] = second compound 0.003 µM, first compound 0.0316 µM
[14] = second compound 0.003 µM, first compound 0.1 µM
[15] = second compound 0.003 µM, first compound 0.316 µM
[16] = second compound 0.003 µM, first compound 1 µM
[17] = second compound 0.003 µM, first compound 3.16 µM
[18] = second compound 0.003 µM, first compound 10 µM
[19] = second compound 0.00949 µM, first compound 0.0316 µM
[20] = second compound 0.00949 µM, first compound 0.1 µM
[21] = second compound 0.00949 µM, first compound 0.316 µM
[22] = second compound 0.00949 µM, first compound 1 µM
[23] = second compound 0.00949 µM, first compound 3.16 µM
[24] = second compound 0.00949 µM, first compound 10 µM
[25] = second compound 0.03 µM, first compound 0.0316 µM
[26] = second compound 0.03 µM, first compound 0.1 µM
[27] = second compound 0.03 µM, first compound 0.316 µM
[28] = second compound 0.03 µM, first compound 1 µM
[29] = second compound 0.03 µM, first compound 3.16 µM
[30] = second compound 0.03 µM, first compound 10 µM
[31] = second compound 0.0949 µM, first compound 0.0316 µM
[32] = second compound 0.0949 µM, first compound 0.1 µM
[33] = second compound 0.0949 µM, first compound 0.316 µM
[34] = second compound 0.0949 µM, first compound 1 µM
[35] = second compound 0.0949 µM, first compound 3.16 µM
[36] = second compound 0.0949 µM, first compound 10 µM
[37] = second compound 0.3 µM, first compound 0.0316 µM
[38] = second compound 0.3 µM, first compound 0.1 µM
[39] = second compound 0.3 µM, first compound 0.316 µM
[40] = second compound 0.3 µM, first compound 1 µM
[41] = second compound 0.3 µM, first compound 3.16 µM
[42] = second compound 0.3 µM, first compound 10 µM
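Further: spheroids exposed to compounds for 7 days before readout.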
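Wherever viability, T/C is given: 100% = DMSO vehicle control viability.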

Compound: CC(C)NCC(C(=O)N1CCN(c2ncnc3c2C(C)CC3O)CC1)c1ccc(Cl)cc1 (configuration not stated) + CCn1c(-c2cccnc2C(C)OC)c2c3cc(ccc31)N1CCOC(CC(NC(=O)C(C(C)C)N(C)C(=O)C3(F)CCN(C(=O)C#CC(C)(C)N(C)C)CC3)C(=O)N3CCCC(N3)C(=O)OCC(C)(C)C2)C1
IC50 [1]: < 31.6 nM
IC50 [2]: < 31.6 nM
IC50 [3]: < 31.6 nM
IC50 [4]: < 31.6 nM
IC50 [5]: < 31.6 nM
IC50 [6]: < 31.6 nM
viability, T/C [7]: 25.4%
viability, T/C [8]: 23%
viability, T/C [9]: 17.7%
viability, T/C [10]: 18.8%
viability, T/C [11]: 14.5%
viability, T/C [12]: 7.61%
viability, T/C [13]: 23.5%
viability, T/C [14]: 21.9%
viability, T/C [15]: 18.5%
viability, T/C [16]: 18.1%
viability, T/C [17]: 14.7%
viability, T/C [18]: 9.24%
viability, T/C [19]: 23.1%
viability, T/C [20]: 15.8%
viability, T/C [21]: 22.4%
viability, T/C [22]: 17.5%
viability, T/C [23]: 13.2%
viability, T/C [24]: 9.76%
viability, T/C [25]: 22.8%
viability, T/C [26]: 22.1%
viability, T/C [27]: 19.3%
viability, T/C [28]: 17.7%
viability, T/C [29]: 12.9%
viability, T/C [30]: 10.9%
viability, T/C [31]: 21.1%
viability, T/C [32]: 21.2%
viability, T/C [33]: 20.7%
viability, T/C [34]: 17.8%
viability, T/C [35]: 11.9%
viability, T/C [36]: 10.9%
viability, T/C [37]: 24.7%
viability, T/C [38]: 22.9%
viability, T/C [39]: 18.9%
viability, T/C [40]: 17.1%
viability, T/C [41]: 13%
viability, T/C [42]: 11.2%

Compound: C=CC(=O)Nc1cc(Nc2nccc(-c3cn(C)c4ccccc34)n2)c(OC)cc1N(C)CCN(C)C
viability, T/C (compound 0.00316 µM): 98.4% [middle of 4 runs]
viability, T/C (compound 0.01 µM): 82.8% [middle of 4 runs]
viability, T/C (compound 0.0316 µM): 68.2% [middle of 4 runs]
viability, T/C (compound 0.1 µM): 67.7% [middle of 4 runs]
viability, T/C (compound 0.316 µM): 55.6% [middle of 4 runs]
viability, T/C (compound 1 µM): 47.3% [middle of 4 runs]

Compound: CC1(O)CCCC1n1c(=O)c(C(F)F)cc2cnc(NC3CCN(S(C)(=O)=O)CC3)nc21 (configuration not stated)
viability, T/C (compound 0.0316 µM): 87% [middle of 4 runs]
viability, T/C (compound 0.1 µM): 84.6% [middle of 4 runs]
viability, T/C (compound 0.316 µM): 75.3% [middle of 4 runs]
viability, T/C (compound 1 µM): 83.9% [middle of 4 runs]
viability, T/C (compound 10 µM): 51.8% [middle of 4 runs]
IC50 (curve of compound): 5940 nM and > 10000 nM and 7430 nM

Compound: CCn1c(-c2cccnc2C(C)OC)c2c3cc(ccc31)N1CCOC(CC(NC(=O)C(C(C)C)N(C)C(=O)C3(F)CCN(C(=O)C#CC(C)(C)N(C)C)CC3)C(=O)N3CCCC(N3)C(=O)OCC(C)(C)C2)C1 (configuration not stated)
viability, T/C (compound 0.000949 µM): 22.6% [middle of 8 runs]
viability, T/C (compound 0.00949 µM): 24.6% [middle of 8 runs]
viability, T/C (compound 0.03 µM): 24.1% [middle of 8 runs]
viability, T/C (compound 0.0949 µM): 24.9% [middle of 8 runs]
viability, T/C (compound 0.3 µM): 24.9% [middle of 8 runs]
IC50 (compound alone, run of 07/09/2024): < 0.949 nM and 4.59 nM

Now from value to compound, other results behind:

IC50 [1]: < 31.6 nM
IC50 [2]: < 31.6 nM
IC50 [3]: < 31.6 nM
IC50 [4]: < 31.6 nM
IC50 [5]: < 31.6 nM
IC50 [6]: < 31.6 nM
Compound: Cc1nc(N2CCC3(CC2)COC(C)C3N)c(CO)nc1Sc1ccnc(N)c1Cl (configuration not stated) + CCn1c(-c2cc(N3CCN(C)CC3)cnc2C(C)OC)c2c3cc(ccc31)-c1csc(n1)CC(NC(=O)C1CC1C)C(=O)N1CCCC(N1)C(=O)OCC(C)(C)C2
viability, T/C [7]: 25.1%
viability, T/C [8]: 21%
viability, T/C [9]: 14.6%
viability, T/C [10]: 19.2%
viability, T/C [11]: 18.7%
viability, T/C [12]: 12.9%
viability, T/C [13]: 19.2%
viability, T/C [14]: 17.7%
viability, T/C [15]: 13.3%
viability, T/C [16]: 13.4%
viability, T/C [17]: 13.6%
viability, T/C [18]: 9.72%
viability, T/C [19]: 14.6%
viability, T/C [20]: 12%
viability, T/C [21]: 12.8%
viability, T/C [22]: 13.6%
viability, T/C [23]: 11.9%
viability, T/C [24]: 11%
viability, T/C [25]: 11.9%
viability, T/C [26]: 15.5%
viability, T/C [27]: 13.9%
viability, T/C [28]: 13.2%
viability, T/C [29]: 9.2%
viability, T/C [30]: 13.5%
viability, T/C [31]: 13.3%
viability, T/C [32]: 14.4%
viability, T/C [33]: 12.8%
viability, T/C [34]: 14.3%
viability, T/C [35]: 9.5%
viability, T/C [36]: 11.1%
viability, T/C [37]: 13.1%
viability, T/C [38]: 12.8%
viability, T/C [39]: 12.6%
viability, T/C [40]: 11.2%
viability, T/C [41]: 12%
viability, T/C [42]: 13.1%

IC50 (compound alone, run of 07/15/2024): < 3.16 nM
IC50 (curve of compound): < 3.16 nM
Compound: C=CC(=O)N1CCN(c2nc(OCC3CCCN3C)nc3c(F)c(-c4nc(N)cc(C)c4C(F)(F)F)c(Cl)cc23)C(C)C1 (configuration not stated)
viability, T/C (compound 0.00316 µM): 21.7% [middle of 12 runs]
viability, T/C (compound 0.01 µM): 19.7% [middle of 12 runs]
viability, T/C (compound 0.0316 µM): 19.9% [middle of 12 runs]
viability, T/C (compound 0.1 µM): 19.5% [middle of 12 runs]
viability, T/C (compound 0.316 µM): 22.8% [middle of 12 runs]
viability, T/C (compound 1 µM): 21% [middle of 12 runs]

IC50 (curve of compound): > 1000 nM
Compound: CCN1CCN(Cc2ccc(Nc3ncc(F)c(-c4cc(F)c5nc(C)n(C(C)C)c5c4)n3)nc2)CC1
viability, T/C (compound 0.00316 µM): 93.9% [middle of 4 runs]
viability, T/C (compound 0.01 µM): 80.5% [middle of 4 runs]
viability, T/C (compound 0.0316 µM): 65.2% [middle of 4 runs]
viability, T/C (compound 0.1 µM): 57.7% [middle of 4 runs]
viability, T/C (compound 0.316 µM): 70.8% [middle of 4 runs]
viability, T/C (compound 1 µM): 72.4% [middle of 4 runs]

IC50 (curve of compound): 2030 nM and 2530 nM and 2050 nM
Compound: CCC(CC)c1cc(NC2CCC(N)C2)n2nccc2n1 (configuration not stated)
viability, T/C (compound 0.1 µM): 105% [middle of 4 runs]
viability, T/C (compound 0.316 µM): 95.6% [middle of 4 runs]
viability, T/C (compound 3.16 µM): 30.5% [middle of 4 runs]
viability, T/C (compound 10 µM): 44% [middle of 4 runs]
